Measured values as given in patent US5348970A, “Antifungal compound and compositions containing the compound” (Merck & Co., Inc., priority 1993, dated 1994).
Converted amounts (≈) assume the structure as drawn.

Assays:
Type in all cases: cell-based
bacterial strains = test: Antibacterial activity in vitro (general statement); details: qualitative statement
Procedure: (§1) The antibacterial activity of the compound was determined using broth dilution assays. The compound was dissolved in DMSO at 10 mg/mL and serially diluted in Luria Broth (LB), composed of […]. The Enterococcal strains were grown in Brain Heart Infusion broth; Staphylococcus aureus (MB2865) was grown in LB; S. aureus (MB108) and (MB2949) and Proteus vulgaris were grown in Nutrient Broth with 2% yeast extract. All bacterial strains were incubated overnight at 37° C. The bacterial cells were diluted 10^-4 in LB to give approximately 5×10^4 to 1×10^5 colony forming units per milliliter. 180 μL of inoculated LB was added to the wells of a 96 well microtiter dish containing 20 μL of diluted inhibitor samples. The final concentration of the compound in the wells ranged from 500-0.00025 μg/ml. The microtiter dishes were incubated for 24 hours at 28° C. and visually inspected for growth. The minimum inhibitory concentration (MIC) was recorded as the lowest concentration of compound to prevent visible growth.

Aspergillus fumigatus = test: Broth dilution MIC, antifungal activity (spore inoculum); details: 18 h, strain MF 5668
Procedure: (§2) Minimum Inhibitory Concentrations The antifungal activity of the compound of formula 1 was determined using broth dilution assays. The compound was dissolved in DMSO at 3.7 mg/mL and serially diluted in 1% aqueous DMSO. The yeast strains including Candida species and Cryptococcal species were grown to exponential phase in a complex medium composed of 1% peptone, 0.5% yeast extract and 0.05% dextrose (CM) at 29° C. The yeast cells were diluted in CM to A600 =0.004 U/mL which was previously determined to be equal to 3000 colony forming units per milliliter. 180 uL of inoculated CM was added to the wells of a 96 well microtiter dish containing 20 μL of diluted inhibitor samples. The final concentration of the compound in the wells ranged from 37-0.01 μg/ml. The microtiter dishes were incubated for 18 hours at 29° C. and visually inspected for growth. The minimum inhibitory concentration (MIC) was recorded as the lowest concentration of compound to prevent visible growth.
(§3) The same procedure was used to determine the MIC of the compound against the filamentous fungi, Aspergillus fumigatus MF 5668, except a spore inoculum was prepared. Spores of A. fumigatus were obtained by washing a well sporulated slant of the organism growing on potato dextrose agar with 0.05% tween 80 solution. […]

Candida krusei = test: Broth dilution MIC, antifungal activity; details: Pichia kudriavzevii; strain MY 2168; 18 hours, 29° C.
Procedure: as §2

Cryptococcus neoformans = test: Broth dilution MIC, antifungal activity; details: 18 h
Procedure: as §2

Candida albicans = test: Broth dilution MIC, antifungal activity; details: strain MY 1055, 18 hours, 29° C.
Procedure: as §2

Candida tropicalis = test: Broth dilution MIC, antifungal activity; details: strain MY 2167, 18 hours, 29° C.
Procedure: as §2

Candida parapsilosis = test: Broth dilution MIC, antifungal activity; details: Lodderomyces parapsilosis; strain MY 1010; 18 hours, 29° C.
Procedure: as §2

fungi = test: Antifungal activity in vitro (general statement); details: qualitative statement
Procedure: as §2, §3

Staphylococcus aureus = test: Broth dilution MIC, antibacterial activity; details: 24 h
Procedure: as §1

Entercoccus faecium = test: Broth dilution MIC, antibacterial activity; details: 24 h
Procedure: as §1

Proteus vulgaris = test: Broth dilution MIC, antibacterial activity; details: strain MB 838, 24 hours, 28° C.
Procedure: as §1

CCCCCCCCCC1OC1/C=C/C(=O)C1(O)C(=O)NC(CO)C1O (stereo not drawn) [Compound 1]
antibacterial activity (bacterial strains): antifungal and antibacterial activity | MIC (Aspergillus fumigatus): 37 µg/mL (≈ 100 µM) | MIC (Candida krusei): > 37 µg/mL | MIC (Cryptococcus neoformans; strain MY 2061, 29° C.): 7.4 µg/mL (≈ 20 µM) | MIC (Cryptococcus neoformans; strain MY 2062, 29° C.): 0.02 µg/mL (≈ 0.0541 µM) | MIC (Candida albicans): 7.4 µg/mL (≈ 20 µM) | MIC (Candida tropicalis): 7.4 µg/mL (≈ 20 µM) | MIC (Candida parapsilosis): 1.5 µg/mL (≈ 4.06 µM) | antifungal activity (fungi): antifungal and antibacterial activity | MIC (Staphylococcus aureus; strain MB 108, 28° C.): 0.5 µg/mL (≈ 1.35 µM) | MIC (Staphylococcus aureus; strain MB 2865, 28° C.): 0.5 µg/mL (≈ 1.35 µM) | MIC (Staphylococcus aureus; strain MB 2949, 28° C.): 125 to 250 µg/mL (≈ 338 to 677 µM) | MIC (Entercoccus faecium; strain MB 5571, 28° C.): 2 µg/mL (≈ 5.41 µM) | MIC (Entercoccus faecium; strain MB 5572, 28° C.): 1 µg/mL (≈ 2.71 µM) | MIC (Proteus vulgaris): > 500 µg/mL
